Test system: MV-4-11 cells
Test: Gene expression microarray analysis (Affymetrix PrimeView) and GSEA
Assay type: cell-based, human
Parameters: RFU PODN (11730768_x_at) / Fold change /veh PODN (11730768_x_at) / RFU LINC00158 (11744669_a_at) / Fold change /veh LINC00158 (11744669_a_at) / RFU DUSP10 (11751237_a_at) / Fold change /veh DUSP10 (11751237_a_at) / RFU ID3 (11757404_x_at) / Fold change /veh ID3 (11757404_x_at) / RFU PLEKHG5 (11737974_s_at) / Fold change /veh PLEKHG5 (11737974_s_at) / RFU LRRC4B (11730491_at) / Fold change /veh LRRC4B (11730491_at) / RFU GIMAP4 (11747438_a_at) / Fold change /veh GIMAP4 (11747438_a_at) / RFU KRT8 (11758183_x_at) / Fold change /veh KRT8 (11758183_x_at) / RFU CNN1 (11734310_a_at) / Fold change /veh CNN1 (11734310_a_at) / RFU VPS37D (11726825_at) / Fold change /veh VPS37D (11726825_at) / RFU C10orf10 (11716522_x_at) / Fold change /veh C10orf10 (11716522_x_at) / RFU KIR2DL2 /// KIR2DL4 /// KIR2DL5A /// KIR2DL5B /// KIR2DS1 /// KIR2DS2 /// KIR2DS3 /// KIR2DS4 /// KIR3DL3 /// KIR3DL3 /// KIR3DS1 (11738374_at) / Fold change /veh KIR2DL2 /// KIR2DL4 /// KIR2DL5A /// KIR2DL5B /// KIR2DS1 /// KIR2DS2 /// KIR2DS3 /// KIR2DS4 /// KIR3DL3 /// KIR3DL3 /// KIR3DS1 (11738374_at) / RFU C1QL1 (11718748_at) / Fold change /veh C1QL1 (11718748_at) / RFU TMPRSS4 (11747572_a_at) / Fold change /veh TMPRSS4 (11747572_a_at) / RFU HAMP (11756126_x_at) / Fold change /veh HAMP (11756126_x_at) / RFU RNFT2 (11725882_a_at) / Fold change /veh RNFT2 (11725882_a_at) / RFU NR4A2 (11747474_a_at) / Fold change /veh NR4A2 (11747474_a_at) / RFU ABCC12 (11746883_a_at) / Fold change /veh ABCC12 (11746883_a_at) / RFU TMEM136 (11760407_x_at) / Fold change /veh TMEM136 (11760407_x_at) / RFU CLDN22 /// WWC2 (11732394_at) / Fold change /veh CLDN22 /// WWC2 (11732394_at) / RFU HLA-DPB1 (11760878_x_at) / Fold change /veh HLA-DPB1 (11760878_x_at) / RFU SPINT1 (11716480_a_at) / Fold change /veh SPINT1 (11716480_a_at) / RFU GAP43 (11754022_s_at) / Fold change /veh GAP43 (11754022_s_at) / RFU A4GNT (11735810_at) / Fold change /veh A4GNT (11735810_at) / RFU PRB3 (11715151_x_at) / Fold change /veh PRB3 (11715151_x_at) / RFU TUBB4B (11761932_at) / Fold change /veh TUBB4B (11761932_at) / RFU CAPN14 (11732068_a_at) / Fold change /veh CAPN14 (11732068_a_at) / RFU TMCC2 (11721928_a_at) / Fold change /veh TMCC2 (11721928_a_at) / RFU IRGQ (11745062_a_at) / Fold change /veh IRGQ (11745062_a_at) / RFU FAM174B (11720279_a_at) / Fold change /veh FAM174B (11720279_a_at) / RFU TMPRSS4 (11748680_a_at) / Fold change /veh TMPRSS4 (11748680_a_at) / RFU FAM212B (11763350_a_at) / Fold change /veh FAM212B (11763350_a_at) / RFU PLEKHG5 (11743358_a_at) / Fold change /veh PLEKHG5 (11743358_a_at) / RFU ZSCAN30 (11745921_a_at) / Fold change /veh ZSCAN30 (11745921_a_at) / RFU CMKLR1 (11741424_a_at) / Fold change /veh CMKLR1 (11741424_a_at) / RFU LOC101060620 /// MAPK8IP1 (11723275_at) / Fold change /veh LOC101060620 /// MAPK8IP1 (11723275_at) / RFU SPTSSB (11747773_x_at) / Fold change /veh SPTSSB (11747773_x_at) / RFU PRSS12 (11739890_at) / Fold change /veh PRSS12 (11739890_at) / RFU BIN1 (11741810_x_at) / Fold change /veh BIN1 (11741810_x_at) / RFU WNT11 (11732464_a_at) / Fold change /veh WNT11 (11732464_a_at) / RFU C10orf10 (11716521_a_at) / Fold change /veh C10orf10 (11716521_a_at) / RFU C5orf56 (11738089_at) / Fold change /veh C5orf56 (11738089_at) / RFU CYB561 (11721691_x_at) / Fold change /veh CYB561 (11721691_x_at) / RFU ANKRD19P (11752326_a_at) / Fold change /veh ANKRD19P (11752326_a_at) / RFU OR2T12 /// OR2T33 /// OR2T8 (11738714_s_at) / Fold change /veh OR2T12 /// OR2T33 /// OR2T8 (11738714_s_at) / RFU VCAN (11748164_a_at) / Fold change /veh VCAN (11748164_a_at) / RFU JSRP1 (11732532_at) / Fold change /veh JSRP1 (11732532_at) / RFU KRTAP10-11 (11738290_x_at) / Fold change /veh KRTAP10-11 (11738290_x_at) / RFU MYO3A (11730013_a_at) / Fold change /veh MYO3A (11730013_a_at) / RFU EBF3 (11725865_a_at) / Fold change /veh EBF3 (11725865_a_at) / RFU CAMK2N1 (11719241_x_at) / Fold change /veh CAMK2N1 (11719241_x_at) / RFU C5orf56 (11738088_a_at) / Fold change /veh C5orf56 (11738088_a_at) / RFU OLFML3 (11715873_a_at) / Fold change /veh OLFML3 (11715873_a_at) / RFU LOC100653217 /// NTM (11731650_a_at) / Fold change /veh LOC100653217 /// NTM (11731650_a_at) / RFU MAPK11 (11762145_a_at) / Fold change /veh MAPK11 (11762145_a_at) / RFU FIZ1 (11724087_x_at) / Fold change /veh FIZ1 (11724087_x_at) / RFU OASL (11726364_x_at) / Fold change /veh OASL (11726364_x_at) / RFU SOX15 (11748057_x_at) / Fold change /veh SOX15 (11748057_x_at) / RFU CD79A (11719716_a_at) / Fold change /veh CD79A (11719716_a_at) / RFU HIST1H1D (11736915_at) / Fold change /veh HIST1H1D (11736915_at) / RFU CASKIN2 (11723855_a_at) / Fold change /veh CASKIN2 (11723855_a_at) / RFU LOC730098 (11760151_x_at) / Fold change /veh LOC730098 (11760151_x_at) / RFU OR4N2 (11742367_at) / Fold change /veh OR4N2 (11742367_at) / RFU PRRT2 (11749266_a_at) / Fold change /veh PRRT2 (11749266_a_at) / RFU SNX32 (11753110_a_at) / Fold change /veh SNX32 (11753110_a_at) / RFU CDHR5 (11726645_a_at) / Fold change /veh CDHR5 (11726645_a_at) / RFU RCAN1 (11760418_a_at) / Fold change /veh RCAN1 (11760418_a_at) / RFU FAM167A (11723789_a_at) / Fold change /veh FAM167A (11723789_a_at) / RFU FAM26E (11764081_at) / Fold change /veh FAM26E (11764081_at) / RFU ISYNA1 (11749810_s_at) / Fold change /veh ISYNA1 (11749810_s_at) / RFU ACY1 (11761880_at) / Fold change /veh ACY1 (11761880_at) / RFU 11764098_at / Fold change /veh 11764098_at / RFU SAMD14 (11745864_x_at) / Fold change /veh SAMD14 (11745864_x_at) / RFU NPB (11741838_a_at) / Fold change /veh NPB (11741838_a_at) / RFU TMPRSS6 (11731388_a_at) / Fold change /veh TMPRSS6 (11731388_a_at) / RFU KRTAP10-2 (11738614_at) / Fold change /veh KRTAP10-2 (11738614_at) / RFU ARHGAP8 /// PRR5-ARHGAP8 (11727945_x_at) / Fold change /veh ARHGAP8 /// PRR5-ARHGAP8 (11727945_x_at) / RFU KRTAP5-7 /// NADSYN1 (11734609_at) / Fold change /veh KRTAP5-7 /// NADSYN1 (11734609_at) / RFU RASL12 (11751679_a_at) / Fold change /veh RASL12 (11751679_a_at) / RFU CDKN2B (11736163_a_at) / Fold change /veh CDKN2B (11736163_a_at) / RFU PRF1 (11729649_at) / Fold change /veh PRF1 (11729649_at) / RFU, ZNF638 /// ZNF638-IT1 / Fold change vs veh, ZNF638 /// ZNF638-IT1 / RFU, PANK3 / Fold change vs veh, PANK3 / RFU, SH3YL1 / Fold change vs veh, SH3YL1 / RFU, ZEB2 / Fold change vs veh, ZEB2 / RFU, NRIP1 / Fold change vs veh, NRIP1 / RFU, PTTG1IP / Fold change vs veh, PTTG1IP / RFU, CAPN2 / Fold change vs veh, CAPN2 / RFU, MED14 / Fold change vs veh, MED14 / RFU, SNORA58 / Fold change vs veh, SNORA58 / RFU, C1orf63 / Fold change vs veh, C1orf63 / RFU, LRRFIP1 / Fold change vs veh, LRRFIP1 / RFU, NDUFAF7 / Fold change vs veh, NDUFAF7 / RFU, SLC12A2 / Fold change vs veh, SLC12A2 / RFU, IBTK / Fold change vs veh, IBTK / RFU, ESF1 / Fold change vs veh, ESF1 / Fold change vs veh, TMEM50B / RFU, TAOK1 / Fold change vs veh, TAOK1 / RFU, ACBD3 / Fold change vs veh, ACBD3 / RFU, TMA16 / Fold change vs veh, TMA16 / RFU, RWDD3 / Fold change vs veh, RWDD3 / RFU, BCAT1 / Fold change vs veh, BCAT1 / RFU, EDEM3 / Fold change vs veh, EDEM3 / RFU, TMEM33 / Fold change vs veh, TMEM33 / RFU, WDR75 / Fold change vs veh, WDR75 / RFU, AHCTF1 / Fold change vs veh, AHCTF1 / RFU, TFRC / Fold change vs veh, TFRC / RFU, ZDHHC17 / Fold change vs veh, ZDHHC17 / RFU, NOM1 / Fold change vs veh, NOM1 / RFU, ARL8B / Fold change vs veh, ARL8B / RFU, ZBTB11 / Fold change vs veh, ZBTB11 / RFU, TAMM41 / Fold change vs veh, TAMM41 / RFU, KIAA1704 /// LOC100996395 / Fold change vs veh, KIAA1704 /// LOC100996395 / RFU, ING1 / Fold change vs veh, ING1 / RFU, TRMT61B / Fold change vs veh, TRMT61B / RFU, FUBP3 / Fold change vs veh, FUBP3 / RFU, TP53 / Fold change vs veh, TP53 / RFU, TNKS2 / Fold change vs veh, TNKS2 / RFU, ZFP14 / Fold change vs veh, ZFP14 / RFU, ACTR2 / Fold change vs veh, ACTR2 / RFU, PPP3R1 / Fold change vs veh, PPP3R1 / RFU, PIK3R1 / Fold change vs veh, PIK3R1 / RFU, HNRNPA1 / Fold change vs veh, HNRNPA1 / RFU, RNF170 / Fold change vs veh, RNF170 / RFU, ZNF28 / Fold change vs veh, ZNF28 / RFU, RNGTT / Fold change vs veh, RNGTT / RFU, OGT / Fold change vs veh, OGT / RFU, BRD1 / Fold change vs veh, BRD1 / RFU, MARS / Fold change vs veh, MARS / RFU, ZNF655 / Fold change vs veh, ZNF655 / RFU, FAHD1 / Fold change vs veh, FAHD1 / RFU, BDP1 / Fold change vs veh, BDP1 / RFU, LRRCC1 / Fold change vs veh, LRRCC1 / RFU, ARID1A / Fold change vs veh, ARID1A / RFU, ZNF146 / Fold change vs veh, ZNF146 / RFU, ZNF330 / Fold change vs veh, ZNF330 / RFU, GPN3 / Fold change vs veh, GPN3 / RFU, C9orf123 / Fold change vs veh, C9orf123 / RFU, N4BP2L2 / Fold change vs veh, N4BP2L2 / RFU, ARFIP1 / Fold change vs veh, ARFIP1 / RFU, FAM179B / Fold change vs veh, FAM179B / RFU, BCL10 / Fold change vs veh, BCL10 / RFU, UHRF1BP1L / Fold change vs veh, UHRF1BP1L / RFU, BET1 / Fold change vs veh, BET1 / RFU, CNOT2 / Fold change vs veh, CNOT2 / RFU, ZNF268 / Fold change vs veh, ZNF268 / Fold change vs veh, ZNF507 / RFU, DGCR2 / Fold change vs veh, DGCR2 / RFU, WDSUB1 / Fold change vs veh, WDSUB1 / Fold change vs veh, HSP90B1 /// MIR3652 / RFU, ADSS / Fold change vs veh, ADSS / RFU, GK / Fold change vs veh, GK / RFU, ZNF148 / Fold change vs veh, ZNF148 / RFU, TAF9 / Fold change vs veh, TAF9 / RFU, SLC1A5 / Fold change vs veh, SLC1A5 / RFU, SLMO2 / Fold change vs veh, SLMO2 / RFU, ABCC4 / Fold change vs veh, ABCC4 / RFU, LOC101060439 /// RAP1B / Fold change vs veh, LOC101060439 /// RAP1B / RFU, RFX7 / Fold change vs veh, RFX7 / RFU, GTPBP10 / Fold change vs veh, GTPBP10 / RFU, CNEP1R1 / Fold change vs veh, CNEP1R1 / RFU, BIVM-ERCC5 /// ERCC5 / Fold change vs veh, BIVM-ERCC5 /// ERCC5 / RFU, ILF3 / Fold change vs veh, ILF3 / RFU 11762660_at / Fold change /veh 11762660_at / RFU VCAN (11757783_s_at) / Fold change /veh VCAN (11757783_s_at) / RFU DDX43 (11728927_at) / Fold change /veh DDX43 (11728927_at) / RFU KRT8 (11758188_x_at) / Fold change /veh KRT8 (11758188_x_at) / RFU NKD1 (11759106_at) / Fold change /veh NKD1 (11759106_at) / RFU SRD5A1 (11742802_a_at) / Fold change /veh SRD5A1 (11742802_a_at) / RFU TPSAB1 /// TPSB2 (11721975_s_at) / Fold change /veh TPSAB1 /// TPSB2 (11721975_s_at) / RFU GSTM3 (11746129_a_at) / Fold change /veh GSTM3 (11746129_a_at) / RFU IL23R (11737362_x_at) / Fold change /veh IL23R (11737362_x_at) / RFU TMEM51 (11727254_a_at) / Fold change /veh TMEM51 (11727254_a_at) / RFU PIWIL2 (11732686_x_at) / Fold change /veh PIWIL2 (11732686_x_at) / RFU ORM1 (11744905_x_at) / Fold change /veh ORM1 (11744905_x_at) / RFU CCDC152 (11743942_at) / Fold change /veh CCDC152 (11743942_at) / RFU ECM1 (11717891_a_at) / Fold change /veh ECM1 (11717891_a_at) / RFU IL23R (11748794_a_at) / Fold change /veh IL23R (11748794_a_at) / RFU TNFAIP8L3 (11732012_x_at) / Fold change /veh TNFAIP8L3 (11732012_x_at) / RFU MBOAT4 (11741988_at) / Fold change /veh MBOAT4 (11741988_at) / RFU 11764193_at / Fold change /veh 11764193_at / RFU TMEM53 (11763286_at) / Fold change /veh TMEM53 (11763286_at) / RFU MAGEB2 (11727129_at) / Fold change /veh MAGEB2 (11727129_at) / RFU TMEM200A (11744735_a_at) / Fold change /veh TMEM200A (11744735_a_at) / RFU CCDC152 (11751479_a_at) / Fold change /veh CCDC152 (11751479_a_at) / RFU FAM211A (11726209_a_at) / Fold change /veh FAM211A (11726209_a_at) / RFU RGS16 (11746705_a_at) / Fold change /veh RGS16 (11746705_a_at) / RFU VCAN (11755009_s_at) / Fold change /veh VCAN (11755009_s_at) / RFU RHOB (11743442_s_at) / Fold change /veh RHOB (11743442_s_at) / RFU RGS16 (11720943_a_at) / Fold change /veh RGS16 (11720943_a_at) / RFU RGS16 (11720944_at) / Fold change /veh RGS16 (11720944_at) / RFU, VPS4B / Fold change vs veh, VPS4B / RFU, CREB1 / Fold change vs veh, CREB1 / RFU, DNAJC13 / Fold change vs veh, DNAJC13 / RFU, GNAQ / Fold change vs veh, GNAQ / RFU, CDK5R1 / Fold change vs veh, CDK5R1 / RFU, ZRANB3 / Fold change vs veh, ZRANB3 / RFU, CUL4A / Fold change vs veh, CUL4A / RFU, CCNY / Fold change vs veh, CCNY / RFU, UFL1 / Fold change vs veh, UFL1 / RFU, COG3 / Fold change vs veh, COG3 / RFU, DIAPH2 / Fold change vs veh, DIAPH2 / RFU, SKA2 / Fold change vs veh, SKA2 / RFU, AFF3 / Fold change vs veh, AFF3 / RFU, LMF1 / Fold change vs veh, LMF1 / RFU, IPO11 / Fold change vs veh, IPO11 / RFU, DFFB / Fold change vs veh, DFFB / RFU, FOXP1 / Fold change vs veh, FOXP1 / RFU, CARD8 / Fold change vs veh, CARD8 / RFU, STRN3 / Fold change vs veh, STRN3 / RFU, ADK / Fold change vs veh, ADK / RFU, RASSF2 / Fold change vs veh, RASSF2 / RFU, WIPF1 / Fold change vs veh, WIPF1 / RFU, LARP1B / Fold change vs veh, LARP1B / RFU, RASA1 / Fold change vs veh, RASA1 / RFU, RB1 / Fold change vs veh, RB1 / RFU, PPFIA1 / Fold change vs veh, PPFIA1 / RFU, MAT2A / Fold change vs veh, MAT2A / RFU, CCT5 / Fold change vs veh, CCT5 / RFU, WDR92 / Fold change vs veh, WDR92 / RFU, CUX1 / Fold change vs veh, CUX1 / RFU, TTC7A / Fold change vs veh, TTC7A / RFU, TMEM135 / Fold change vs veh, TMEM135 / RFU, DEPTOR / Fold change vs veh, DEPTOR / RFU, CPM / Fold change vs veh, CPM / RFU, DNAJB6 / Fold change vs veh, DNAJB6 / RFU, CACNA2D3 / Fold change vs veh, CACNA2D3 / RFU, DTX4 / Fold change vs veh, DTX4 / RFU, TFCP2 / Fold change vs veh, TFCP2 / RFU, GMCL1 /// GMCL1P1 / Fold change vs veh, GMCL1 /// GMCL1P1 / RFU, AEBP2 / Fold change vs veh, AEBP2 / RFU, SNHG1 /// SNORD22 /// SNORD25 /// SNORD26 /// SNORD27 /// SNORD28 /// SNORD29 /// SNORD31 / Fold change vs veh, SNHG1 /// SNORD22 /// SNORD25 /// SNORD26 /// SNORD27 /// SNORD28 /// SNORD29 /// SNORD31 / Fold change (Aza/veh), C12orf56 (ProbeSet 11735607_a_at) / Fold change (ACY-1035/veh), C12orf56 (ProbeSet 11735607_a_at) / Fold change (Aza/veh), FGFR1OP (ProbeSet 11751329_s_at) / Fold change (ACY-1035/veh), FGFR1OP (ProbeSet 11751329_s_at) / Fold change (Aza/veh), VPS36 (ProbeSet 11739960_a_at) / Fold change (ACY-1035/veh), VPS36 (ProbeSet 11739960_a_at) / RFU SYPL1 (11715823_x_at) / Fold change /veh SYPL1 (11715823_x_at) / RFU IGFBP7 (11715501_s_at) / Fold change /veh IGFBP7 (11715501_s_at) / RFU REEP3 (11722064_at) / Fold change /veh REEP3 (11722064_at) / RFU IGLL1 (11728026_x_at) / Fold change /veh IGLL1 (11728026_x_at): dose or concentration left out as unconfirmed
Conditions: MV-4-11 cells, 48 hours

SMILES: Nc1ccc(-c2cccs2)cc1NC(=O)c1ccc2c(c1)cc(C1CC1)n2CCN1CCOCC1 [ACY-1035]
- RFU 11764193_at: 28.66 RFU

Source: paper PMC5218480 (PLoS ONE, 2017)
